In brackets after ≈: the same amount, converted by molar mass.
What was measured:
[1] = Ratio of CR50 for wild type Bacillus subtilis H17 to CR50 for recombination-deficient Bacillus subtilis M45; format: ADME, organism-based
[2] = system: Bacillus subtilis; test: Genotoxicity in recombination-deficient Bacillus subtilis M45 assessed as growth inhibition; format: toxicity, organism-based; conditions: in vivo
[3] = system: Bacillus subtilis; test: Genotoxicity in wild type Bacillus subtilis H17 assessed as growth inhibition; format: toxicity, organism-based; conditions: in vivo

Row | SMILES | selectivity ratio [1] | MIC [2] [µg/mL] | MIC [3] [µg/mL]
1 | O=C(Cc1ccc(F)cc1)Nc1ccc2oc(Cc3ccccc3)nc2c1 | 0.58 | 500 | 500 (≈ 1390 µM)
2 | Cc1ccc2nc(-c3ccccc3Cl)oc2c1 | 1.85 | 60 | 125 (≈ 513 µM)
3 | CNc1ccc(-c2nc3ccccc3o2)cc1 | 1.5 | 500 | 1000 (≈ 4460 µM)
4 | Clc1ccc2[nH]c(CC3CCCCC3)nc2c1 | 0.93 | 500 | 1000 (≈ 4020 µM)
5 | Nc1ccc2oc(Cc3ccc(F)cc3)nc2c1 | 1.25 | 500 | 500 (≈ 2060 µM)
6 | Cc1ccc2[nH]c(Cc3ccc(Br)cc3)nc2c1 | 0.49 | 125 | 30 (≈ 99.6 µM)
7 | O=C(Nc1ccc2oc(-c3ccccc3)nc2c1)c1ccc(F)cc1 | 1.6 | 500 | 1000 (≈ 3010 µM)
8 | Nc1ccc2oc(-c3ccc(Br)cc3)nc2c1 | 1.05 | 1000 | 1000 (≈ 3460 µM)
9 | CCOc1ccc(Cc2nc3cc([N+](=O)[O-])ccc3o2)cc1 | 1.27 | 500 | 500 (≈ 1680 µM)
10 | Cc1ccc2oc(-c3ccccc3[N+](=O)[O-])nc2c1 | 0.96 | 500 | 500 (≈ 1970 µM)
11 | Clc1ccc(OCc2nc3cc(Cl)ccc3o2)cc1 | 1 | 500 | 500 (≈ 1700 µM)
12 | O=[N+]([O-])c1ccc2oc(-c3ccccc3)nc2c1 | 1.07 | 500 | 500 (≈ 2080 µM)
13 | CCc1ccc(-c2nc3cc(NC(=O)Cc4ccc(Br)cc4)ccc3o2)cc1 | 0.95 | 500 | 500 (≈ 1150 µM)
14 | Cc1ccc(Cc2nc3cc(N)ccc3o2)cc1 | 1.74 | 500 | 500 (≈ 2100 µM)
15 | O=[N+]([O-])c1cc[n+]([O-])c2ccccc12 [4-NITROQUINOLINE-1-OXIDE] | 0.69 | 60 | 1000 (≈ 5260 µM)
16 | Nc1ccc(-c2nc3cc(Cl)ccc3o2)cc1 | 1 | 2000 | 2000 (≈ 8170 µM)
17 | O=[N+]([O-])c1cc2oc(C3CCCCC3)nc2cc1Cl | 1.25 | 500 | 500 (≈ 1780 µM)
18 | Cc1ccc2nc(COc3ccccc3)oc2c1 | 0.93 | 1000 | 1000 (≈ 4180 µM)
19 | Clc1ccc2oc(Cc3ccc(Br)cc3)nc2c1 | 1.05 | 1000 | 1000 (≈ 3100 µM)

— ChEMBL document CHEMBL3046301, “A study on the genotoxic activities of some new benzoxazoles” (Med Chem Res, 2007)
